Results taken from the METLIN SMRT retention time set (Domingo-Almenara et al. 2019).

Experiment: gradient 5% acetonitrile 3 min, to 50% in 2 min, to 85% in 15 min, held 3 min, 100 µL/min
Details: column: Zorbax Extend-C18 2.1 x 50 mm; eluents: water / acetonitrile, 0.1% formic acid
Method in brief: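 Data were gathered over 3 months by HPLC coupled to a quadrupole time-of-flight mass spectrometer, operated in positive and negative ionization mode. Mixtures of ~100 pure standards ran on a Zorbax Extend-C18 column (2.1 × 50 mm, 1.8 μm) at 100 μL/min, with water and acetonitrile each containing 0.1% formic acid and dead and dwell volumes of 40 μL and 900 μL. Retention time was read from adduct peaks picked by computer and checked manually.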

| SMILES | RP-LC retention time |
| --- | --- |
| O=C(NCc1ccccc1Cl)c1nnc(-c2ccc(S(=O)(=O)N3CCOCC3)cc2)o1 | 888 s |
| COCCNC(=O)N1c2ccccc2NC2=C(C(=O)CC(C)(C)C2)C1c1ccc(OC)cc1 (stereo unspecified) | 704 s |
| Cc1ccc(-c2coc(-c3ccc(NC(=O)CC(C)C)cc3)n2)c(C)c1 | 1240 s |
| CNC(=O)CCC[C@@H]1[C@H]2CCCN3CCC[C@@H](CN1C(=O)CC(C)C)[C@@H]23 | 568 s |
| O=C(NCCc1ccccc1)N1CCCn2nc(-c3ccncc3)cc2C1 | 583 s |
| COc1ccc(NC(=O)COc2ccccc2)c2ccccc12 | 893 s |
| Cc1ccccc1Oc1nccnc1N1CCC(C(=O)NC(C)CCc2ccccc2)CC1 (stereo unspecified) | 1120 s |
| O=C(Cn1cc(-c2ccc(F)cc2)oc1=O)N1CCN(c2cccc(Cl)c2)CC1 | 972 s |
| COc1ccc(CN2C[C@@H]3C(=O)N(CCCN4CCCC4=O)C(=O)[C@@H]3C2)cc1OC | 575 s |
| O=C(Cc1csc2nc(-c3ccccc3)cn12)NCCc1ccc(Cl)cc1 | 806 s |
| CCOC(=O)C1CCN(C(=O)Cn2c(=O)oc3ccc(C(=O)N4CCCC4)cc32)CC1 | 699 s |
| O=C(Cn1c(=O)c2cc(-c3cccs3)nn2c2ncccc21)NCc1ccc(F)cc1 | 821 s |
| COCCNC(=O)c1ccc(-c2ccc(N3CCSCC3)nc2)cc1 | 624 s |
| Nc1ccc(Nc2nc(-c3ccc(Cl)cc3)cs2)cc1 | 947 s |
| CCn1cnc(S(=O)(=O)N2CCC(C(=O)Nc3ccc(OC)cc3OC)CC2)c1 | 706 s |
| O=c1c2sccc2n(Cc2nc(-c3ccc(F)c(Cl)c3)no2)c(=O)n1CCc1ccccc1 | 1230 s |
| CC(=O)c1sc2nc(SC/C=C/c3ccccc3)[nH]c(=O)c2c1C | 977 s |
| COc1ccc(-c2ncc3c(n2)CCN(S(=O)(=O)c2cc(C)ccc2C)C3)cc1 | 1150 s |
| CN1C(=O)c2cc(C(=O)N3CCC(C(N)=O)CC3)nn2CC1(C)C(=O)NC1CCCC1 (stereo unspecified) | 888 s |
| CCN1CCN(C(=O)CCc2cc(OC)c(OC)c(OC)c2)c2cccnc21 | 613 s |

The next lines start with the values.

| RP-LC retention time | SMILES |
| --- | --- |
| 941 s | COc1ccc(-c2nnc(-c3ccc(C)c(S(=O)(=O)NC(C)(C)C)c3)o2)cc1OC |
| 659 s | Cc1cc(C)c(S(=O)(=O)NCCn2c(C)cnc2C2CC2)cc1C |
| 762 s | COc1cc(=O)n2c(c1C(=O)Nc1cccc3c1CCCC3)CCCC2 |
| 947 s | CC1CCN(C(=O)c2cc3c(s2)CCC(C(=O)Nc2ccc4c(c2)OCCO4)C3)CC1 (stereo unspecified) |
| 888 s | CCOc1ccccc1C1NC(=O)N(CC(=O)Nc2ccc(C(F)(F)F)cc2)C2=C1C(=O)OC2 (stereo unspecified) |
| 636 s | CCc1ccc2c(C)nc(NC3=NC(C)(C)C=C(C)N3)nc2c1 |
| 1170 s | Cc1cc(C)cc(N2C(=O)C3N=NN(c4ccc(C)c(Cl)c4)C3C2=O)c1 (stereo unspecified) |
| 902 s | COc1ccc(-n2ncc3c(=O)n(Cc4nc(-c5ccccc5OC)no4)cnc32)cc1 |
| 693 s | CCCNC(=O)C1CCCN(c2nnc(C)c3c(C)n(-c4ccc(Cl)cc4)nc23)C1 (stereo unspecified) |
| 692 s | CC(C)c1nncn1C1CCN(S(=O)(=O)c2ccccc2F)CC1 |
| 876 s | COc1cc(OC)cc(-c2nc(Cn3c(C)nc4ccccc4c3=O)no2)c1 |
| 753 s | CCc1ccc(S(=O)(=O)N2CCC3(CC2)NCCN=C3NCc2ccc(F)cc2)cc1 |
| 549 s | O=C(NC(=O)N1CCN(Cc2ccccc2)CC1)c1ccccc1 |
| 927 s | Cc1ccc(CNc2c(-c3cccc(Br)c3)nc3ncccn23)cc1 |
| 802 s | O=C(c1cc2n(n1)CCCN(Cc1ccc(F)cc1)C2=O)N1CCN(c2ccccn2)CC1 |
| 705 s | CCOCCCNCc1ccc(-c2ccc(Br)cc2)o1 |
